We go through 21 compounds from US10040791B2, “Isoxazole derivative as mutant isocitrate dehydrogenase 1 inhibitor” (Daiichi Sankyo Company, Limited, priority 2014, dated 2018).

Structures can show the parent of a compound that is named as a salt. Where two headings read alike, the source gives them in different places.

For orientation: IC50 means the concentration that gives 50% inhibition.

Experiment [1] concerns HT1080 xenografted mice (IDH1R132C). As to the kind of experiment: 2-HG production inhibitory activity using HT1080 xenografted mice. It is filed as in vivo, mouse. Conditions: for response vs control in vivo at 75 mg/kg: Mus musculus, HT-1080, po, 6 h, read-out: Test Example 5 Ratio (%). On the procedure: HT1080 xenografted mice having successfully engrafted tumors were given by oral gavage each compound at 75 mg/kg a total of three times twice a day. The compound was suspended in a vehicle solution at 7.5 mg/mL using a homogenizer. Then, the suspension was stored at −20° C., thawed immediately before the administration, and given to mice. A negative control group for the test was given a vehicle by oral gavage. The body weights of the mice were measured using an automatic balance for small animals. The dosing solution was administered at a dose of 10 mL/kg body weight.
6 hours after the final administration, each mouse was euthanized with carbon dioxide. A portion of a tumor was collected, and its weight was measured using an electronic balance. Then, the tumor was frozen on dry ice. To the frozen tumor, methanol was added in an amount of 14 times the tumor weight. The resulting tumor was homogenized with Beads shocker (Yasui Kikai Corp.) and then incubated for 15 minutes in a freezer at −20° C. After centrifugation at 15000 rpm at 4° C. for 15 minutes using a high-speed refrigerated microcentrifuge, 250 μL of methanol and 400 μL of ultrapure water were added to 150 μL of the obtained supernatant. The prepared samples were subjected to 2-HG measurement.

Experiment [2] deals with HT-1080 cells expressing IDH1R132C. As to the kind of experiment: 2-HG production inhibitory activity using HT1080 cell. The following applies: Homo sapiens. It is filed as cell-based, human. On the procedure: Then, 100 μL of growth medium B was added to each well, further 25 μL of a solution of each compound diluted to a predetermined concentration with growth medium B was added to each well, and the cells were incubated at 37° C. for 2 days under 5% CO2. […] Then, 150 μL of ultrapure water was further added to each well, and the mixture was stirred by pipetting and stored at −20° C.
The preserved solutions were thawed at room temperature.

A further experiment addresses IDH1R132C (Homo sapiens (Human), UniProt O75874, R132C). As to the kind of experiment: Inhibitory activity against IDH1R132C enzyme (NADPH detection, WST-8). Format: biochemical. Conditions: 10 nM, residual NADPH detected with WST-8, read-out: Test Example 1 IDH1 R132C IC50.
Where [3] appears, read: 2-HG production, HT1080 xenografted mice.
[4] abbreviates: HT-1080, 2-HG production, HT1080 cells, read-out: Test Example 3 IC50.

IDH1R132C, sequence (O75874 whole entry R132C): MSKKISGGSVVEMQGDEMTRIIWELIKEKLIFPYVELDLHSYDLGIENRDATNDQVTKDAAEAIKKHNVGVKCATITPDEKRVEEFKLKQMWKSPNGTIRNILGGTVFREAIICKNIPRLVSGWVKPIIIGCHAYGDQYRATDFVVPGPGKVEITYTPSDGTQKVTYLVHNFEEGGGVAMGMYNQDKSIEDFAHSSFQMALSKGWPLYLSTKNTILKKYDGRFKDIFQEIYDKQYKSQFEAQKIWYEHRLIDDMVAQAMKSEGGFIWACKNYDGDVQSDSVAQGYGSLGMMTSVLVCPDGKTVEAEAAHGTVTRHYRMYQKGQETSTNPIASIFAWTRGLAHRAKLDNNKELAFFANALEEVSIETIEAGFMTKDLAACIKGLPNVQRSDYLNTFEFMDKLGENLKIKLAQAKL

Regarding `CC(C)(C)c1onc(-c2c(Cl)cc(Cl)cc2Cl)c1C(=O)n1ccc2c(/C=C/C(=O)O)cccc21` [Example 22, (2E)-3-(1-{[5-(tert-Butyl)-3-(2,4,6-trichlorophenyl)-1,2-oxazol-4-yl]carbonyl}-1H-indol-4-yl)prop-2-enoic acid], the response vs control in vivo at 75 mg/kg in experiment [1] (setting [3]) stood at 13%. For the same compound, the IC50 stood at 109 nM in experiment [2] (setting [4]) and 189 nM at IDH1R132C.

In the case of `C=CC(=O)N1CCC(c2onc(-c3cc(F)c(Cl)cc3Cl)c2C(=O)n2cc(C)c3c(/C=C/C(=O)O)cccc32)CC1` [Example 121], in experiment [1] (setting [3]), the response vs control in vivo at 75 mg/kg turned out to be 8%. In addition, the IC50 in experiment [2] (setting [4]) is 8 nM; at IDH1R132C, 110 nM.

For the compound `C=CC(=O)N1CCC(OC)(c2onc(-c3c(Cl)cc(Cl)cc3Cl)c2C(=O)n2cc(C)c3c(/C=C/C(=O)O)cccc32)CC1` [Example 117], the response vs control in vivo at 75 mg/kg in experiment [1] (setting [3]) worked out at 10%. Besides, the concentration for half-maximal inhibition (IC50) turned out to be 2 nM in experiment [2] (setting [4]) and 117 nM at IDH1R132C.

Consider `Cc1cn(C(=O)c2c(-c3c(Cl)cc(Cl)cc3Cl)noc2C(C)(C)F)c2cccc(/C=C/C(=O)O)c12` [Example 21, (2E)-3-(1-{[5-(2-Fluoropropan-2-yl)-3-(2,4,6-trichlorophenyl)-1,2-oxazol-4-yl]carbonyl}-3-methyl-1H-indol-4-yl)prop-2-enoic acid], for which, in experiment [1], the response vs control in vivo at 75 mg/kg is 14%. For the same compound, the IC50 in experiment [2] (HT-1080, read-out: Test Example 3 IC50 (nM)) worked out at 56 nM; at IDH1R132C, 95 nM.

Take `CNC1(c2onc(-c3c(Cl)cc(Cl)cc3Cl)c2C(=O)n2cc(C)c3c(/C=C/C(=O)O)cccc32)CCC1` [Example 83, (2E)-3-(3-Methyl-1-{[5-[1-(methylamino)cyclobutyl]-3-(2,4,6-trichlorophenyl)-1,2-oxazol-4-yl]carbonyl}-1H-indol-4-yl)prop-2-enoic acid]: the response vs control in vivo at 75 mg/kg in experiment [1] (setting [3]) worked out at 23%. Moreover, the IC50 worked out at 33 nM in experiment [2] (setting [4]) and 87 nM at IDH1R132C.

Regarding `C=CC(=O)N1CC2(CC2)N(c2onc(-c3c(F)cccc3Cl)c2C(=O)n2ccc3c(/C=C/C(=O)O)cccc32)C[C@H]1C` [Example 156, (2E)-3-[1-({5-[(6R)7-Acryloyl-6-methyl-4,7-diazaspiro[2.5]oct-4-yl]-3-(2-chloro-6-fluorophenyl)-1,2-oxazol-4-yl}carbonyl)-1H-indol-4-yl]prop-2-enoic acid], in experiment [1] (setting [3]), the response vs control in vivo at 75 mg/kg is 60%. The IC50 (in experiment [2] (setting [4]); at IDH1R132C) was 167 nM in each case.

As to `C=CC(=O)N1CCN(c2onc(-c3c(Cl)cccc3Cl)c2C(=O)n2ccc3c(/C=C/C(=O)O)cccc32)[C@@H](C)C1` [Example 145, (2E)-3-[1-({5-[(2S)-4-Acryloyl-2-methylpiperazin-1-yl]-3-(2,6-dichlorophenyl)-1,2-oxazol-4-yl}carbonyl)-1H-indol-4-yl]prop-2-enoic acid], the response vs control in vivo at 75 mg/kg in experiment [1] (setting [3]) came to 56%. Moreover, the IC50 in experiment [2] (setting [4]) stood at 820 nM; at IDH1R132C it was 214 nM.

In the case of `C=CC(=O)N1CCN(c2onc(-c3c(F)cccc3Cl)c2C(=O)n2ccc3c(/C=C/C(=O)O)cccc32)C(C)(C)C1` [Example 157, (2E)-3-(1-{[5-(4-Acryloyl-2,2-dimethylpiperazin-1-yl)-3-(2-chloro-6-fluorophenyl)-1,2-oxazol-4-yl]carbonyl}-1H-indol-4-yl)prop-2-enoic acid], the response vs control in vivo at 75 mg/kg in experiment [1] (setting [3]) amounted to 89%. Further, the IC50 in experiment [2] (setting [4]) worked out at 265 nM; at IDH1R132C, 256 nM.

For `CC(C)(F)c1onc(-c2c(Cl)cc(Cl)cc2Cl)c1C(=O)n1ccc2c3c(ccc21)CCC(C(=O)O)C3` (stereo not shown) [Example 18, 3-{[5-(2-Fluoropropan-2-yl)-3-(2,4,6-trichlorophenyl)-1,2-oxazol-4-yl]carbonyl}-6,7,8,9-tetrahydro-3H-Benzo[e]indole-8-carboxylic acid], in experiment [1] (setting [3]), the response vs control in vivo at 75 mg/kg worked out at 56%. In addition, the IC50 came out at 136 nM in experiment [2] (setting [4]) and 162 nM on IDH1R132C.

For `Cc1cn(C(=O)c2c(-c3c(Cl)cccc3Cl)noc2C(C)(C)F)c2cccc(/C=C/C(=O)O)c12` [Example 53, (2E)-3-(1-{[3-(2,6-Dichlorophenyl)-5-(2-fluoropropan-2-yl)-1,2-oxazol-4-yl]carbonyl}-3-methyl-1H-indol-4-yl)prop-2-enoic acid], the response vs control in vivo at 75 mg/kg in experiment [1] (setting [3]) amounted to 60%. Also, the IC50 is 146 nM in experiment [2] (setting [4]) and 163 nM on IDH1R132C.

As for `C=CC(=O)N1CCC(c2onc(-c3c(C)cc(C)cc3C)c2C(=O)n2cc(C)c3c(/C=C/C(=O)O)cccc32)CC1` [Example 114], the response vs control in vivo at 75 mg/kg in experiment [1] (setting [3]) was 12%. In addition, the IC50 worked out at 3 nM in experiment [2] (setting [4]) and 81 nM at IDH1R132C.

In the case of `Cn1cc(C(=O)c2c(-c3c(Cl)cc(Cl)cc3Cl)noc2C(C)(C)C)c2ccc3ccc(C(=O)O)cc3c21` [Example 167, 3-{[5-tert-Butyl-3-(2,4,6-trichlorophenyl)-1,2-oxazol-4-yl]carbonyl}-1-methyl-1H-benzo[g]indole-8-carboxylic acid], in experiment [1] (setting [3]), the response vs control in vivo at 75 mg/kg was 87%. Besides, the IC50 came to 195 nM in experiment [2] (setting [4]) and 196 nM on IDH1R132C.

For `C=CC(=O)N1CCN(c2onc(-c3c(Cl)cc(Cl)cc3Cl)c2C(=O)n2ccc3c(/C=C/C(=O)O)cccc32)C2(CC2)C1` [Example 150, (2E)-3-(1-{[5-[7-Acryloyl-4,7-diazaspiro[2.5]oct-4-yl]-3-(2,4,6-trichlorophenyl)-1,2-oxazol-4-yl]carbonyl}-1H-indol-4-yl)prop-2-enoic acid], in experiment [1] (setting [3]), the response vs control in vivo at 75 mg/kg was 18%. In addition, the IC50 in experiment [2] (setting [4]) stood at 41 nM; on IDH1R132C, 98 nM.

For `C=CC(=O)N1CCN(c2onc(-c3c(Cl)cccc3Cl)c2C(=O)n2ccc3c(/C=C/C(=O)O)cccc32)CC1` [Example 142, (2E)-3-(1-{[5-(4-Acryloylpiperazin-1-yl)-3-(2,6-dichlorophenyl)-1,2-oxazol-4-yl]carbonyl}-1H-indol-4-yl)prop-2-enoic acid], in experiment [1] (setting [3]), the response vs control in vivo at 75 mg/kg came to 56%. The IC50 in experiment [2] (setting [4]) worked out at 134 nM; on IDH1R132C, 123 nM.

`Cc1cn(C(=O)c2c(-c3c(F)cc(Cl)cc3F)noc2C(C)(C)F)c2cccc(/C=C/C(=O)O)c12` [Example 54, (2E)-3-(1-{[3-(4-Chloro-2,6-difluorophenyl)-5-(2-fluoropropan-2-yl)-1,2-oxazol-4-yl]carbonyl}-3-methyl-1H-indol-4-yl)prop-2-enoic acid]: in experiment [1] (setting [3]), the “Test Example 5 Ratio (%)” value stood at 16%. The IC50 worked out at 90 nM in experiment [2] (setting [4]) and 109 nM on IDH1R132C.

Take `Cc1cn(C(=O)c2c(-c3ccc(Cl)cc3Cl)noc2C(C)(C)F)c2cccc(/C=C/C(=O)O)c12` [Example 173, (2E)-3-(1-{[3-(2,4-Dichlorophenyl)-5-(2-fluoropropan-2-yl)-1,2-oxazol-4-yl]carbonyl}-3-methyl-1H-indol-4-yl)prop-2-enoic acid tert-butylamine salt]: the “Test Example 5 Ratio (%)” value in experiment [1] (setting [3]) worked out at 2%.

Regarding `Cc1cn(C(=O)c2c(-c3c(Cl)cc(Cl)cc3Cl)noc2C(F)(F)F)c2cccc(/C=C/C(=O)O)c12` [Example 61, (2E)-3-(3-Methyl-1-{[3-(2,4,6-trichlorophenyl)-5-(trifluoromethyl)-1,2-oxazol-4-yl]carbonyl}-1H-indol-4-yl)prop-2-enoic acid], in experiment [1] (setting [3]), the response vs control in vivo at 75 mg/kg worked out at 63%. Further, the IC50 in experiment [2] (setting [4]) amounted to 337 nM.

As for `Cc1cn(C(=O)c2c(-c3c(Cl)cc(Cl)cc3Cl)noc2C2(C#N)CCC2)c2cccc(/C=C/C(=O)O)c12` [Example 93, (2E)-3-(1-{[5-(1-Cyanocyclobutyl)-3-(2,4,6-trichlorophenyl)-1,2-oxazol-4-yl]carbonyl}-3-methyl-1H-indol-4-yl)prop-2-enoic acid], the response vs control in vivo at 75 mg/kg in experiment [1] (setting [3]) came out at 119%. The IC50 in experiment [2] (setting [4]) was found to be 42 nM.

On to `Cn1cc(C(=O)c2c(-c3c(Cl)cc(Cl)cc3Cl)noc2C(C)(C)C)c2cccc(/C=C/C(=O)O)c21` [Example 164], for which the response vs control in vivo at 75 mg/kg in experiment [1] (setting [3]) was 89%. For the same compound, in experiment [2] (setting [4]), the IC50 came out at 330 nM.

For `Cc1cn(C(=O)c2c(-c3ccc(Cl)cc3Cl)noc2C2(C)COC2)c2cccc(/C=C/C(=O)O)c12` [Example 78, (2E)-3-(1-{[3-(2,4-Dichlorophenyl)-5-(3-methyloxetan-3-yl)-1,2-oxazol-4-yl]carbonyl}-3-methyl-1H-indol-4-yl)prop-2-enoic acid], the response vs control in vivo at 75 mg/kg in experiment [1] (setting [3]) worked out at 50%. Also, in experiment [2] (setting [4]), the IC50 is 281 nM.

With `Cc1cn(C(=O)c2c(-c3c(F)cc(Cl)cc3F)noc2C(C)(C)F)c2cccc(/C=C/C(=O)O)c12` [Example 170, (2E)-3-(1-{[3-(4-Chloro-2,6-difluorophenyl)-5-(2-fluoropropan-2-yl)-1,2-oxazol-4-yl]carbonyl}-3-methyl-1H-indol-4-yl)prop-2-enoic acid tert-butylamine salt], the “Test Example 5 Ratio (%)” value in experiment [1] (setting [3]) was determined as 35%.
